According to EP0302445B1, “A novel hypoglycemic and growth-promoting agent” (THE PROTOR CO., priority 1987, dated 1992):

System: insulinase
Experiment: insulinase inhibitory activity measurement (method of Duckworth et al.)
Format: biochemical
Conditions: fractions of commercial bacitracin, result in words
Method: The desired fraction is believed to have a molecular weight of about 1400, approximately the same as bacitracin A or F. Their anti-insulinase and antibacterial activities can be assayed in conventional manner. For example, the insulinase inhibitory activity was measured according to the method of Duckworth, et al., Proc. Nat. Acad. Sci., 69, 3698-3702 (1972) and the anti-bacterial activity by the method of Patrick, et al., Antibiotics and Chemotherapy, 1, 133-137 (1951).
A 350 ml bed volume of CM-Sepharose in a packed column (2.8 x 56 cm) was equilibrated with 0.05M ammonium acetate, pH 4.5 One gram of commercial bacitracin dissolved in 50 ml of buffer was applied to the packed column. The material was eluted with 2 l of equilibrating buffer followed by 350 ml of 1M ammonium acetate pH 4.5 buffer. Five ml fractions were collected and absorbance measurements at 252, 280 and 290 nm were made. In addition, insulinase inhibitory activity measurements were made on each peak. […] The peaks were collected, lyophilized, weighed and dissolved in water at 5 mg/ml concentration for specific activity measurements. The material collected with the second buffer contained 5-10 % of the total weight of the applied material and 90 % of the total insulinase inhibitory capacity. The specific activity of this material was 10-12 times that of the starting commercial material.

Substance: bacitracin A
- insulinase inhibitory activity: substantially no anti-insulinase activity
- insulinase inhibitory activity (listed as Bacitracin A): negligible

Substance: bacitracin F
- insulinase inhibitory activity: substantially no anti-insulinase activity
- insulinase inhibitory activity (listed as Bacitracin F): negligible
